The results in this text go back to US11884683B2, “Tricyclic heterocycle compounds useful as HIV integrase inhibitors” (Merck Sharp & Dohme LLC, priority 2018, dated 2024).

The experiment concerns HIV-1 (H9/IIIB strain). The experiment is described as follows: Multiple round HIV-1 infection assay in MT4-GFP cells (wild type cell assay, Viking). It counts as cell-based. To be noted: 0% NHS condition, MT4-GFP cells infected with HIV-1 H9/IIIB, inhibition of reproductive ratio R0, ~48 h and ~72 h post-infection, read-out: WILD TYPE CELL ASSAY Viking IP (0% NHS). How it is done: Assessing Antiviral Potency in a Multiple Round HIV-1 Infection Assay
The antiviral activity of the Examples herein was assessed in an assay that measures the rate of replication of HIV in cell culture, and performed according to the following procedure. HIV-1 replication was monitored using MT4-gag-GFP clone D3 (hereafter designated MT4-GFP), which are MT-4 cells modified to harbor a GFP reporter gene, the expression of which is dependent on the HIV-1 expressed proteins tat and rev. Productive infection of an MT4-GFP cell with HIV-1 results in GFP expression approximately 24 h post-infection. MT4-GFP cells were maintained at 37° C./5% CO2/90% relative humidity in RPMI 1640 supplemented with 10% fetal bovine serum, 100 U/ml penicillin/streptomycin, and 400 μg/ml G418 to maintain the reporter gene. For infections, MT4-GFP cells were placed in the same medium lacking G418 and infected overnight with HIV-1 (H9/IIIB strain) virus at an approximate multiplicity of infection of 0.01 in the same incubation conditions. Cells were then washed and re-suspended in either RPMI 1640 at 2×10^5 cells/mL (0% NHS condition) or 100% normal human serum (NHS) at 2×10^5 cells/mL (100% NHS condition). Compound plates were prepared by dispensing compounds dissolved in DMSO into wells of 384 well poly-D-lysine-coated plates (0.2 μl/well) using an ECHO acoustic dispenser. Each compound was tested in a 10-point serial 3-fold dilution (typical final concentrations: 1050 nM-0.05 nM for 0% NHS condition or […]-2.13 nM for 100% NHS condition). Controls included no inhibitor (DMSO only) and a combination of three antiviral agents (efavirenz, indinavir, an in-house integrase strand transfer inhibitor at final concentrations of […] each). Cells were added ([…]) to compound plates and the infected cells were maintained at 37° C./5% CO2/90% relative humidity.
Infected cells were quantified at two time points, ˜48 h and ˜72 h post-infection, by counting the number of green cells in each well using an Acumen eX3 scanner. The increase in the number of green cells over ˜24 h period gives the reproductive ratio, RO, which is typically 5-15 and has been shown experimentally to be in logarithmic phase (data not shown). Inhibition of R0 is calculated for each well, and IC50s determined by non-linear 4-parameter curve fitting.

Setting [1] is: Human immunodeficiency virus 1, IIIB.

Structures are written as SMILES. pIC50: −log10 of the molar value. Read-outs that look alike come from different tables or passages of the source.

As for `COCCN1CN2CC(O)c3c(C(=O)NCc4cccc(Cl)c4F)c(=O)c(O)c(n32)C1=O` (stereo not drawn) [Compound 42], the pIC50 was 8.72.

`COCCN1CN2CC(O)c3c(C(=O)NCc4c(F)ccc(Cl)c4F)c(=O)c(O)c(n32)C1=O` (stereo not drawn) [Compound 43]: the pIC50 under setting [1] was 8.47.

Turning to `COCCN1CN2CC(O)c3c(C(=O)NCc4c(F)ccc(Cl)c4F)c(=O)c(O)c(n32)C1=O` (stereo not drawn) [Compound 44], the pIC50 is 8.51.

In the case of `COCCN1CN2CC(O)c3c(C(=O)NCc4c(F)cc(F)cc4F)c(=O)c(O)c(n32)C1=O` (stereo not drawn) [Compound 45], the pIC50 under setting [1] is 8.60.

As to `COCCN1CN2CC(O)c3c(C(=O)NCc4c(F)cc(F)cc4F)c(=O)c(O)c(n32)C1=O` (stereo not drawn) [Compound 46], the pIC50 is 8.43.

Turning to `CCN1CN2CC(O)c3c(C(=O)NCc4c(F)ccc(F)c4F)c(=O)c(O)c(n32)C1=O` (stereo not drawn) [Compound 47], the pIC50 under setting [1] is 8.55.

`CCN1CN2CC(O)c3c(C(=O)NCc4c(F)ccc(F)c4F)c(=O)c(O)c(n32)C1=O` (stereo not drawn) [Compound 48]: the pIC50 is 8.64.

With `CCN1CN2CC(O)c3c(C(=O)NCc4ccc(F)c(Cl)c4F)c(=O)c(O)c(n32)C1=O` (stereo not drawn) [Compound 49], the pIC50 is 8.70.

As to `CCN1CN2CC(O)c3c(C(=O)NCc4ccc(F)c(Cl)c4F)c(=O)c(O)c(n32)C1=O` (stereo not drawn) [Compound 50], the pIC50 was 8.38.

Consider `CCN1CN2CC(O)c3c(C(=O)NCc4cccc(Cl)c4F)c(=O)c(O)c(n32)C1=O` (stereo not drawn) [Compound 51], for which the pIC50 was 8.68.

For `CCN1CN2CC(O)c3c(C(=O)NCc4cccc(Cl)c4F)c(=O)c(O)c(n32)C1=O` (stereo not drawn) [Compound 52], the pIC50 was 8.09.

As to `CCN1CN2CC(O)c3c(C(=O)NCc4c(F)ccc(Cl)c4F)c(=O)c(O)c(n32)C1=O` (stereo not drawn) [Compound 53], the pIC50 is 8.96.

Turning to `CCN1CN2CC(O)c3c(C(=O)NCc4c(F)ccc(Cl)c4F)c(=O)c(O)c(n32)C1=O` (stereo not drawn) [Compound 54], the pIC50 was 8.33.

As for `CCN1CN2CC(O)c3c(C(=O)NCc4c(F)cc(F)cc4F)c(=O)c(O)c(n32)C1=O` (stereo not drawn) [Compound 55], the pIC50 under setting [1] is 8.80.

Turning to `CCN1CN2CC(O)c3c(C(=O)NCc4c(F)cc(F)cc4F)c(=O)c(O)c(n32)C1=O` (stereo not drawn) [Compound 56], the pIC50 was 8.54.

As to `CCN1CN2CC(O)c3c(C(=O)NCc4ccc(F)cc4F)c(=O)c(O)c(n32)C1=O` (stereo not drawn) [Compound 57], the pIC50 under setting [1] was 8.62.

Turning to `CCN1CN2CC(O)c3c(C(=O)NCc4ccc(F)cc4F)c(=O)c(O)c(n32)C1=O` (stereo not drawn) [Compound 58], the pIC50 was 8.40.

On to `CCN1CN2CC(O)c3c(C(=O)NCc4ccc(F)c(F)c4F)c(=O)c(O)c(n32)C1=O` (stereo not drawn) [Compound 59], for which, under setting [1], the pIC50 was 8.60.

As for `CCN1CN2CC(O)c3c(C(=O)NCc4ccc(F)c(F)c4F)c(=O)c(O)c(n32)C1=O` (stereo not drawn) [Compound 60], the pIC50 was 8.55.

Turning to `CCN1CN2CC(O)c3c(C(=O)NCc4ccc(F)cc4)c(=O)c(O)c(n32)C1=O` (stereo not drawn) [Compound 61], the pIC50 was 8.72.

Take `CCN1CN2CC(O)c3c(C(=O)NCc4ccc(F)cc4)c(=O)c(O)c(n32)C1=O` (stereo not drawn) [Compound 62]: the pIC50 is 8.28.

Regarding `CCN1CN2CC(O)c3c(C(=O)NCc4ccccc4F)c(=O)c(O)c(n32)C1=O` (stereo not drawn) [Compound 63], the pIC50 is 8.80.

Turning to `CCN1CN2CC(O)c3c(C(=O)NCc4ccccc4F)c(=O)c(O)c(n32)C1=O` (stereo not drawn) [Compound 64], the pIC50 is 8.23.

With `CCN1C(=O)c2c(O)c(=O)c(C(=O)NCc3c(F)ccc(Cl)c3F)c3n2N(CC3O)C1C` (stereo not drawn) [Compound 71], the pIC50 under setting [1] was 8.43.

Regarding `CCN1C(=O)c2c(O)c(=O)c(C(=O)NCc3c(F)ccc(Cl)c3F)c3n2N(CC3O)C1C` (stereo not drawn) [Compound 72], the pIC50 is 8.64.

Take `CCN1C(=O)c2c(O)c(=O)c(C(=O)NCc3ccc(C(F)F)cc3)c3n2N(CC3O)C1C` (stereo not drawn) [Compound 75]: the pIC50 was 7.46.

For the compound `CCN1C(=O)c2c(O)c(=O)c(C(=O)NCc3ccc(C(F)F)cc3)c3n2N(CC3O)C1C` (stereo not drawn) [Compound 76], the pIC50 is 7.06.

Regarding `CCN1C(=O)c2c(O)c(=O)c(C(=O)NCc3ccc(C(F)(F)F)cc3)c3n2N(CC3O)C1C` (stereo not drawn) [Compound 79], the pIC50 is 6.99.

For `CCN1C(=O)c2c(O)c(=O)c(C(=O)NCc3ccc(C(F)(F)F)cc3)c3n2N(CC3O)C1C` (stereo not drawn) [Compound 80], the pIC50 was 6.66.

`CCN1C(=O)c2c(O)c(=O)c(C(=O)NCc3c(F)ccc(F)c3F)c3n2N(CC3O)C1C` (stereo not drawn) [Compound 83]: the pIC50 under setting [1] was 8.60.

On to `CCN1C(=O)c2c(O)c(=O)c(C(=O)NCc3c(F)ccc(F)c3F)c3n2N(CC3O)C1C` (stereo not drawn) [Compound 84], for which the pIC50 is 8.68.

`CCN1C(=O)c2c(O)c(=O)c(C(=O)NCc3ccc(F)cc3)c3n2N(CC3O)C1C` (stereo not drawn) [Compound 87]: the pIC50 under setting [1] was 8.38.

As to `CCN1C(=O)c2c(O)c(=O)c(C(=O)NCc3ccc(F)cc3)c3n2N(CC3O)C1C` (stereo not drawn) [Compound 88], the pIC50 was 8.54.

`CCN1C(=O)c2c(O)c(=O)c(C(=O)NCc3ccc(F)cc3F)c3n2N(CC3O)C1C` (stereo not drawn) [Compound 91]: the pIC50 under setting [1] was 8.48.

Regarding `CCN1C(=O)c2c(O)c(=O)c(C(=O)NCc3ccc(F)cc3F)c3n2N(CC3O)C1C` (stereo not drawn) [Compound 92], the pIC50 was 8.77.

Regarding `CN1C(=O)c2c(O)c(=O)c(C(=O)NCc3ccc(F)cc3F)c3n2N(CC3O)C12CCOC2` (stereo not drawn) [Compound 113], under setting [1], the pIC50 is 8.82.

On to `CN1C(=O)c2c(O)c(=O)c(C(=O)NCc3ccc(F)cc3F)c3n2N(CC3O)C12CCOC2` (stereo not drawn) [Compound 114], for which the pIC50 was 8.72.

As for `CN1C(=O)c2c(O)c(=O)c(C(=O)NCc3c(F)ccc(Cl)c3F)c3n2N(CC3O)C12CCOC2` (stereo not drawn) [Compound 117], the pIC50 under setting [1] is 8.74.

`CN1C(=O)c2c(O)c(=O)c(C(=O)NCc3c(F)ccc(Cl)c3F)c3n2N(CC3O)C12CCOC2` (stereo not drawn) [Compound 118]: the pIC50 is 8.80.
